Reference: patent US20080261994A1, “CYCLOPROPANE COMPOUNDS AND PHARMACEUTICAL USE THEREOF” (Japan Tobacco Inc., priority 2003, published 2008)
Like-named read-outs stand apart in the source and are kept apart here.

What was measured:
Type in all cases: biochemical
aggrecanase-1 = target: T1, aggrecanase-1 (Homo sapiens, UniProt O75173); assay: Aggrecanase-1 inhibitory action (Particle Assay, GAG release from aggrecan-containing polyacrylamide particles)
T1 sequence (O75173 213-837): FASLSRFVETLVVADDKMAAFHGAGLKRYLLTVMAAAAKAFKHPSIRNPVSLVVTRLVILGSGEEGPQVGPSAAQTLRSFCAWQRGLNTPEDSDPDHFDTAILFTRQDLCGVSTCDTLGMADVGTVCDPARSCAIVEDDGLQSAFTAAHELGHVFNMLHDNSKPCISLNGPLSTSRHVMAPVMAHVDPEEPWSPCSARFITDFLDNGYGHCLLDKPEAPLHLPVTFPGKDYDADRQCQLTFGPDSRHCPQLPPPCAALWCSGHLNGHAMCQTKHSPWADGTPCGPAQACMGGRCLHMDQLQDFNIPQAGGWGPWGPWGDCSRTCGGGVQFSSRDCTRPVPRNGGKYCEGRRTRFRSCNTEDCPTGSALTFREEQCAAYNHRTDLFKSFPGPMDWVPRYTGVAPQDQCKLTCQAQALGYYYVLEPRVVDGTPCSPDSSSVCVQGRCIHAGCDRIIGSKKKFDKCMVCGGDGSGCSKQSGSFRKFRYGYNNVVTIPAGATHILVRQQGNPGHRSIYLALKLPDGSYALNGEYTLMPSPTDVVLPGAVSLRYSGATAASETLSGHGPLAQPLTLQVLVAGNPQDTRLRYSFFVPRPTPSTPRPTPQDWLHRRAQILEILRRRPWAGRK
Method in brief: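 Readout was dimethylmethylene blue absorbance (595 nm) of glycosaminoglycan liberated into supernatant, calibrated with whale chondroitin sulfate. Substrate was aggrecan in polyacrylamide particles, digested 15 h at 37° C in Tris-HCl; TC50 (μM) derived from inhibition relative to no-enzyme and no-inhibitor controls.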

MMP-1 = target: T2, MMP-1 (Homo sapiens, UniProt P03956); assay: MMP-1 inhibitory action (Type I collagen Activity Measurement kit, FITC-labeled collagen type I)
T2 sequence (P03956 100-469): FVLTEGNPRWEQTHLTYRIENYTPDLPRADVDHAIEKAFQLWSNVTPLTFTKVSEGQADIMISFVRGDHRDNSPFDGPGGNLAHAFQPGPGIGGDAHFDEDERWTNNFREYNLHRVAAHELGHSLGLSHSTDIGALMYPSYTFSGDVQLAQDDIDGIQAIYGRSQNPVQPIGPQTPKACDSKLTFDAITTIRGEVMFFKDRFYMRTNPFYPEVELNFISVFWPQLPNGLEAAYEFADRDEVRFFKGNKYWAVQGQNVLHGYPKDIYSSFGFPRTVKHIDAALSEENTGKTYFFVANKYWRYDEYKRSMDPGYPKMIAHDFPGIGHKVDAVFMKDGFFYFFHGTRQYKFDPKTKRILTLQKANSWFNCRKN

Recombinant Human MMP-13 = target: T3, Recombinant Human MMP-13 (Homo sapiens, UniProt P45452); assay: MMP-13 inhibitory activity (MMP-13 specific fluorescent substrate with quencher)
T3 construct: purchased R&D systems 511-MM
Method in brief: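 IC50 (μM) derived from % inhibition, normalised to wells without enzyme and without inhibitor, fluorescence read at 325/405 nm. Enzyme and compound preceded addition of the quenched 7-MCA…DPA substrate; Tris-HCl buffer, 25 °C for 1 h, acetic-acid stop.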

[1] = Experimental Example 1, read-out: IC50 AG1
[2] = Experimental Example 2, read-out: IC50 MMP1
[3] = Experimental Example 3, read-out: IC50 MMP13
[4] = aggrecanase-1 inhibitory action, read-out: IC50 AG1 (Experimental Example 1)
[5] = MMP-1 inhibitory action, FITC-labeled collagen type I, 37° C. for 3 hr, read-out: IC50 MMP1 (Experimental Example 2)
[6] = Recombinant Human MMP-13, fluorescent substrate, 25° C. for 1 h, read-out: IC50 MMP13 (Experimental Example 3)

SMILES	IC50 (aggrecanase-1; [1])	IC50 (MMP-1; [2])	IC50 (Recombinant Human MMP-13; [3])	IC50 (aggrecanase-1; [4])	IC50 (MMP-1; [5])	IC50 (Recombinant Human MMP-13; [6])
CC(=O)N1CCC2C(c3ccccc31)C2(NS(=O)(=O)c1ccc(-c2ccc(Cl)cc2)s1)C(=O)O (stereo not drawn) [Example 2-439]	< 100 nM	≥ 1000 nM	< 100 nM			
O=C(O)C1(NS(=O)(=O)c2ccc(-c3cc(C(F)F)on3)s2)C2CCCc3ccccc3C21 (stereo not drawn) [Example 2-383]	< 100 nM	< 1000 nM	< 100 nM			
O=C(O)CSCC1(c2ccccc2)CC1(NS(=O)(=O)c1ccc(-c2ccc(Cl)cc2)s1)C(=O)O (stereo not drawn) [Example 2-358]	< 100 nM	≥ 1000 nM	< 1000 nM			
O=C(O)[C@@]1(NS(=O)(=O)c2ccc(-c3ccc(Cl)cc3)s2)C[C@H]1c1ccccc1Br [Example 2-168]				< 1000 nM	≥ 10000 nM	≥ 1000 nM
CNC(=O)Cc1ccc([C@@H]2C[C@]2(NS(=O)(=O)c2ccc(-c3cc(C(F)(F)F)on3)s2)C(=O)O)cc1 [Example 2-293]	< 100 nM	< 1000 nM	< 100 nM			
C[C@]1(c2cccc(F)c2)C[C@@]1(NS(=O)(=O)c1ccc(-c2cc(C(F)(F)F)on2)s1)C(=O)O [Example 2-618]	< 100 nM	< 1000 nM	< 1000 nM			
C[C@]1(c2ccccc2)C[C@@]1(NS(=O)(=O)c1ccc(-c2ccc(Cl)cn2)s1)C(=O)O [Example 2-131]				< 100 nM	≥ 1000 nM	< 1000 nM
O=C(O)C1(NS(=O)(=O)N2CCC(Oc3ccccc3)CC2)CC1c1ccccc1 (stereo not drawn) [Example 2-143]				≥ 10000 nM	≥ 10000 nM	≥ 1000 nM
C[C@]1(c2ccccc2)C[C@@]1(NS(=O)(=O)c1ccc(-c2ccncc2)s1)C(=O)O [Example 2-526]	≥ 1000 nM	≥ 1000 nM	≥ 1000 nM			
CN(C)C(=O)OCCC1(c2ccccc2)CC1(NS(=O)(=O)c1ccc(-c2ccc(Cl)cc2)s1)C(=O)O (stereo not drawn) [Example 2-303]	< 100 nM	≥ 1000 nM	< 100 nM			
O=C(O)C1(NS(=O)(=O)N2CC=C(c3ccc(Cl)cc3)CC2)CC1c1ccccc1 (stereo not drawn) [Example 2-149]				≥ 1000 nM	≥ 10000 nM	< 100 nM
COC(=O)N1CC=C(c2ccc(S(=O)(=O)N[C@@]3(C(=O)O)C[C@@H]3c3ccccc3)s2)CC1 [Example 2-3, 4-[5-((1S,2R)-1-carboxy-2-phenyl-cyclopropanesulfamoyl)-thiophene-2-yl]-3,6-dihydro-2H-pyridin-1-carboxylic acid methyl ester]				≥ 1000 nM	≥ 10000 nM	≥ 1000 nM
O=C(O)C1(NS(=O)(=O)c2ccc(-c3ccc(Cl)cc3)s2)CC1Cn1nnc2ccccc2c1=O (stereo not drawn) [Example 2-47]				≥ 1000 nM	≥ 10000 nM	< 1000 nM
CN(Cc1cccnc1)c1cccc([C@H]2C[C@@]2(NS(=O)(=O)c2ccc(-c3ccc(Cl)cc3)s2)C(=O)O)c1 [Example 2-183]				< 100 nM	≥ 1000 nM	< 100 nM
O=C(O)C1(NS(=O)(=O)c2ccc(-c3cc(C(F)(F)F)on3)o2)C2CCCc3ccccc3C21 (stereo not drawn) [Example 2-373]	≥ 1000 nM	≥ 10000 nM	≥ 1000 nM			
O=C(O)C1(NS(=O)(=O)c2ccc(-c3cc(C(F)(F)F)on3)s2)CC1c1cccc(CCO)c1 (stereo not drawn) [Example 2-268]	< 100 nM	≥ 1000 nM	< 100 nM			
O=C1O[C@@H]([C@H]2C[C@@]2(NS(=O)(=O)c2ccc(-c3ccc(Cl)cc3)s2)C(=O)O)CN1Cc1ccccc1 [Example 2-139]				≥ 1000 nM	≥ 10000 nM	≥ 1000 nM
CC1[C@H](c2ccccc2)[C@]1(NS(=O)(=O)c1ccc(-c2cc(C(N)=O)on2)s1)C(=O)O (stereo partly drawn) [Example 2-578]	< 1000 nM	≥ 1000 nM	< 100 nM			
C[C@]1(c2ccccc2)C[C@@]1(NS(=O)(=O)c1ccc(-n2cc(C(F)(F)F)cn2)s1)C(=O)O [Example 2-599]	< 100 nM	≥ 1000 nM	< 1000 nM			
